Consider one compound from ChEMBL document CHEMBL4118041, “Targeted Dereplication of Microbial Natural Products by High-Resolution MS and Predicted LC Retention Time” (2017).

This experiment has as its system A2058. As to the kind of experiment: Cytotoxicity against human A2058 cells assessed as survival at 250 uM relative to control. The experiment is classed as functional. The note with it: read-out: Survival.

Regarding `CC1=C(NC(=O)CC(C)C)C(=O)N(CCCC(=O)O)C1=O`, the viability at 250 µM amounted to 100%.
